Test results taken from PubChem BioAssay AID1918991 (Molecular Pharmacology Branch, DTP, NCI, 2023).
Several values for one entry are separate records, joined by “and”; a condition that tells them apart may be missing. Equal entries are not always repeated.

Test system: 186277-243-T-J2-PDC complex spheroid growth
Assay: Anticancer human tumor 186277-243-T-J2-PDC patient-derived colon adenocarcinoma cell line growth inhibition [AhR]
Conditions: for viability, T/C: stronger effect = lower value
Excerpt: Multicellular complex tumor spheroid response to aryl hydrocarbon receptor antagonists in combination with a variety of drugs and investigational agents in selected tumor cell lines
The current study was undertaken to assess response to aryl hydrocarbon receptor antagonists in combination with standard-of-care drugs and investigational agents in solid tumor complex spheroid models. Complex spheroids include a stromal component modeled by human endothelial cells (HUVEC) and fibroblasts modeled by human mesenchymal stem cells (MSCs). The concentration ranges selected for each drug and investigational agent were based upon clinically achievable concentrations if the clinical Cmax of the agent was known.
Compounds. The drugs and investigational agents: BAY 2416964 (NSC825713), GNF351 (NSC835774), CH-223191 (NSC835775), CPI-455 (NSC825282), aza-TdCyd (NSC777586), decitabine (NSC127716), belinostat (NSC758774), entinostat (NSC756642), pevonedistat (NSC761192), tazemetostat (NSC777109), talazoparib (NSC765396), olaparib (NSC753686), selinexor (NSC780203), nedisertib (M3814, NSC802822), bortezomib (NSC756655), venetoclax (NSC766270), doxorubicin (NSC123127), elimusertib (BAY189344, NSC800525), ceralasertib (AZD6738, NSC777638), TAK-243 (NSC785004), alisertib (NSC759677), etoposide (NSC141540), topotecan (NSC609699), eribulin (NSC707389), gemcitabine (NSC613327), carboplatin (NSC241240), cisplatin (NSC119875), and SN-38 (NSC673596) were obtained from the National Cancer Institute (NCI) Developmental Therapeutics Program Chemical Repository (32). The FDA-approved anticancer drug set is available from the Developmental Therapeutics Program at https://dtp.cancer.gov/organization/dscb/obtaining/available plates.htm. […] The stock solutions were prepared in dimethyl sulfoxide (DMSO, Sigma-Aldrich, St. Louis, MO, cat. D2650), except for the platinum compounds which were prepared in saline (Quality Biological, Gaithersburg, MD, cat. 114-055-101), at 800-fold the tested concentration and stored at -70 degrees C prior to their use. All drugs and investigational agents were tested over a range starting from a high concentration at or near the clinical Cmax and decreasing in half-log increments. If the clinical Cmax for an agent had not been determined, the highest concentration tested was 10 microM (Table 1).
Cell Culture. All cells were maintained in an incubator at 37 degrees C and 5% CO2 with 95% humidity. The PDC lines were cultured according to standard operating procedures established by the NCI PDMR (https://pdmr.cancer.gov). Briefly, all PDCs were thawed and cultured in Matrigel-coated flasks prepared with a working solution of 1X Ham's F-12 nutrient mix, without supplementation (Invitrogen, Waltham, MA, cat. 11765054), 100 U/mL penicillin-streptomycin (Invitrogen, cat. 15140122), and 2.5% Matrigel (Corning Inc., Corning, NY, cat. 354248) for the first three passages. All PDCs were cultured in complete DMEM/F-12 media containing advanced DMEM/F-12 (Invitrogen, cat. 12634028), 4.9% defined fetal bovine serum, heat inactivated (HyClone Laboratories Inc., Logan, UT, cat. SH30070.03HI), 389 ng/mL hydrocortisone (Sigma-Aldrich, cat. H4001), 9.7 ng/mL human EGF recombinant protein (Invitrogen, cat. PHG0313), 23.4 microg/mL adenine (Sigma-Aldrich, cat. A2786), 97.3 U/mL penicillin-streptomycin (Invitrogen, cat. 15140122), 1.9 mM L-glutamine (Invitrogen, cat. 25030081), and 9.7 microM Y-27632 dihydrochloride (Tocris Bioscience, Bristol, United Kingdom, cat. 1254). The PDCs were cultured in complete DMEM/F12 media without 10 microM Y-27632 dihydrochloride for at least two passages prior to the screen. The established cell lines NCI-H1341 and […] were cultured in DMEM/F-12, HEPES (Invitrogen, cat. 11330032), 5% defined fetal bovine serum (HyClone Laboratories Inc., cat. SH30070.03), ITS premix universal culture supplement [insulin (5 microg/mL), transferrin (5 microg/mL), and selenious acid (5 ng/mL)] […]
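Further: spheroids exposed to compounds for seven days before the viability read.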
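Wherever viability, T/C is given: luminescent signal used as a stand-in for viable cell amount; 100% = DMSO vehicle control wells.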

| SMILES | viability, T/C (compound 0.0316 µM) | viability, T/C (compound 0.1 µM) | viability, T/C (compound 1 µM) | viability, T/C (compound 3.16 µM) | viability, T/C (compound 10 µM) | viability, T/C (compound 0.316 µM) | IC50 (curve of compound) | other results |
| --- | --- | --- | --- | --- | --- | --- | --- | --- |
| COc1cccc2c1C(=O)c1c(O)c3c(c(O)c1C2=O)CC(O)(C(=O)CO)CC3OC1CC(N)C(O)C(C)O1 (configuration not stated) | 111% and 154% and 44.9% | 74.9% and 144% and 30.5% | 0.9% and 5.52% and 0.26% | 0.36% and 0.59% and 0.22% | 0.28% and 1.4% and 0.25% |  |  |  |
| Cc1ccccc1N=Nc1ccc(NC(=O)c2ccnn2C)c(C)c1 |  |  | 99.2% [middle of 20 runs] | 96% [middle of 20 runs] | 88.8% [middle of 20 runs] |  |  | IC50 (compound alone, run of 07/26/2022): > 10000 nM |
| Cc1cncc(-c2nc(NCCc3c[nH]c4ccccc34)c3ncn(C(C)C)c3n2)c1 |  |  |  |  |  | 97.7% [middle of 20 runs] |  |  |
| Cn1ncnc1C1c2n[nH]c(=O)c3cc(F)cc(c23)NC1c1ccc(F)cc1 (configuration not stated) | 99.6% and 119% and 78.8% | 110% and 114% and 69% |  |  |  |  | > 100 nM | viability, T/C (compound 0.000316 µM): 102% and 97.2% and 113%; viability, T/C (compound 0.001 µM): 97.8% and 111% and 108%; viability, T/C (compound 0.00316 µM): 91.4% and 107% and 93.2%; viability, T/C (compound 0.01 µM): 103% and 107% and 102% |
| NS(=O)(=O)OCC1CC(n2ccc3c(NC4CCc5ccccc54)ncnc32)CC1O (configuration not stated) | 89.3% and 94.6% and 101% | 102% (2×) and 88.4% | 45.8% and 44.2% and 18.4% | 20.8% and 25.7% and 4.9% | 5.48% and 7.98% and 1.51% | 89.2% and 88.5% and 60.5% | 949 nM and 927 nM and 412 nM |  |
| Nc1ccccc1NC(=O)c1ccc(CNC(=O)OCc2cccnc2)cc1 | 88.5% and 90.8% and 86.3% | 93.2% and 91.9% and 87.4% | 86.5% and 92.2% and 37% | 68.6% and 79.5% and 12.6% | 8.95% and 16.8% and 0.82% | 76.2% and 99.5% and 68.8% | 4530 nM and 5440 nM and 639 nM |  |
| Nc1ccn(C2OC(CO)C(O)C2(F)F)c(=O)n1 (configuration not stated) | 9.07% and 4.89% and 17.2% | 8.27% and 4.63% and 16.2% | 8.52% and 4.4% and 18.1% | 9.77% and 4.35% and 19.5% | 9.11% and 3.84% and 21.3% | 8.12% and 4.79% and 17.4% | < 31.6 nM |  |
| Nc1ncn(C2CC(O)C(CO)O2)c(=O)n1 (configuration not stated) | 98.8% and 108% and 88.1% | 114% and 107% and 76.6% | 133% and 121% and 49.5% |  |  | 137% and 110% and 65.2% | > 1000 nM and 982 nM | viability, T/C (compound 0.00316 µM): 102% and 96.5% and 89.6%; viability, T/C (compound 0.01 µM): 104% and 110% and 93.2% |
| Nc1ncn(C2CC(O)C(CO)S2)c(=O)n1 (configuration not stated) |  |  |  |  |  |  | > 300 nM and 134 nM | viability, T/C (compound 0.000949 µM): 87.2% and 104% and 95.7%; viability, T/C (compound 0.003 µM): 88% and 111% and 97.1%; viability, T/C (compound 0.00949 µM): 108% and 115% and 92.5%; viability, T/C (compound 0.03 µM): 125% and 111% and 78.5%; viability, T/C (compound 0.0949 µM): 128% and 116% and 60.8%; viability, T/C (compound 0.3 µM): 102% and 117% and 26.4% |
| O=C(C=Cc1cccc(S(=O)(=O)Nc2ccccc2)c1)NO | 96.8% and 107% and 99.7% | 93.5% and 112% and 84.1% | 55.2% and 91.8% and 13.2% |  | 5.03% and 5.28% and 0.5% | 99.1% and 95.8% and 46.9% | 1160 nM and 2160 nM and 285 nM |  |
| O=C(C=Cn1cnc(-c2cc(C(F)(F)F)cc(C(F)(F)F)c2)n1)NNc1cnccn1 |  |  |  |  |  |  | 474 nM and 524 nM and 61.5 nM | viability, T/C (compound 0.00949 µM): 92.2% and 97% and 81.2%; viability, T/C (compound 0.03 µM): 102% and 90.7% and 65.3%; viability, T/C (compound 0.0949 µM): 102% and 91.8% and 41.7%; viability, T/C (compound 0.3 µM): 74.7% and 80.7% and 10.9%; viability, T/C (compound 0.949 µM): 12.6% and 17.4% and 2.87%; viability, T/C (compound 3 µM): 4.45% and 8.73% and 1.48% |
| O=C(c1cc(Cc2n[nH]c(=O)c3ccccc23)ccc1F)N1CCN(C(=O)C2CC2)CC1 | 97.8% and 98% and 85.2% | 93.2% and 103% and 106% | 109% and 92.3% and 85% | 132% and 89.9% and 70.9% | 120% and 114% and 36.5% | 114% and 94.5% and 98.3% | > 10000 nM and 6300 nM |  |
